# Measured values: article PMC6609550, “Blockade of the forward Na^+/Ca^2+ exchanger suppresses the growth of glioblastoma cells through Ca^2+‐mediated cell death” (British Journal of Pharmacology, 2019)
# Assays:
# Assay type in all cases: cell-based, Human
# [Ca^2+]i in U87 cells = Ca2+ imaging (Fluo-4 AM) of U87 cells; conditions: BAPTA‐AM 20 μM for 2 hr before perfusion
# Procedure: Cells were cultured in 96‐well plates at 8 × 10^3 per well and loaded with the cell membrane‐permeable Ca^2+ dye Fluo‐4 AM (5 μM) in 100‐μl HEPES‐buffered solution for 50 min. The solution contained (mM): 135 NaCl, 3 KCl, 2 CaCl2, 1 MgCl2, 10 glucose, and 10 HEPES, supplemented with 1% FBS at pH 7.4. To prepare the Ca^2+‐free solution, 2‐mM CaCl2 was replaced with 1‐mM EGTA in the HEPES‐buffered solution. The 96‐well plate containing the Fluo‐4 AM‐loaded cells was mounted in a Leica TCS SP8 confocal system (Leica Microsystems, Wetzlar, Germany). The confocal microscope armed with 488‐nm laser light was employed to excite the dynamic fluorescent signals in time and synchronously, while test regents were added to cells. To do Na^+ imaging, Fluo‐4 AM was replaced with the cell membrane‐permeable Na^+ dye Asante NaTrium Green‐2 AM (ANG‐2 AM) at 5 μM, which was excited by 514‐nm laser light. Visual inspection and fluorescent imaging were carried out at room temperature. The imaging data were analysed with the software https://leica-las-af-lite.software.informer.com/ 2.5 (Leica). The imaging traces shown are representative of at least three separate experiments; 12–18 cells were imaged in each experiment.
# U87 cells [1] = assay: Cell cycle assay (PI staining, flow cytometry) of U87 cells
# Procedure: (§1) U87 cells were seeded in six‐well plates (Corning, Corning, NY, USA) with 1 × 10^6 cells per well and treated with NCX blockers, BAPTA‐AM, or MAPK inhibitors. Drug treatment was performed by the person who is blinded to the experimental groups. After treatment, cells were harvested in 15‐ml tubes and washed with cold sterile PBS. After being centrifuged, cells were fixed with 70% ethanol […] at 4°C for at least 1 hr. For propidium iodide (PI) staining, cells were washed one time with PBS and then were treated with ribonuclease A (RNase; 100 μg·ml^−1) for 30 min. PI (10 μg·ml^−1) was added, and stained cells were kept in the dark at 4°C until analysis. The number of cells analysed for each sample was 10,000 events. FACS analysis was performed using the Coulter CytoFlexS flow cytometer (Beckman Coulter, CA, USA), and the percentage of cells in the G0/G1, S, and G2/M phases was determined using cell cycle analysis software, ModFit LT 5.0 (Verity Software House, Topsham, ME, USA). For the apoptosis assay, cells were harvested and washed twice with cold PBS and resuspended at a density of 1 × 10^6 cells·ml^−1 in 100 μl of binding buffer containing 5 μl of Annexin V–FITC and 5 μl of PI working solution (100 μg·ml^−1). After incubation at room temperature for 15 min in the dark, 400 μl of binding buffer was added to each sample. Apoptosis was analysed by Coulter CytoFlexS flow cytometer (Beckman Coulter) for at least 10,000 events, and data were analysed with the software, CyExpert 2.0 (Beckman Coulter).
# U87 cells [2] = assay: Annexin V–FITC/PI apoptosis assay of U87 cells
# Procedure: as §1
# p38‐MAPK = assay: Western blot of phosphorylated and total p38-MAPK in U87 cells; conditions: BAPTA‐AM 10 μM 18 hr then bepridil 25 μM 30 min
# Procedure: (§2) After treatment with bepridil for 0, 30, 60, and 90 min, cells were collected and lysed in RIPA buffer (Beyotime, Nanjing, China) supplemented with protease inhibitor (Beyotime). The total protein concentration of each sample was determined using the BCA Protein Assay Kit (Sangon Biotech, Shanghai, China). Equal protein extracts (45‐μg protein per lane) were separated by SDS‐PAGE and electrophoretically transferred to PVDF membranes (Millipore, Bedford, MA, USA). Then, the membranes were incubated with anti‐phosphorylated and total http://www.guidetopharmacology.org/GRAC/FamilyDisplayForward?familyId=514, http://www.guidetopharmacology.org/GRAC/FamilyDisplayForward?familyId=518, and http://www.guidetopharmacology.org/GRAC/FamilyDisplayForward?familyId=519 antibodies (1:1,000; Cell Signaling Technology) at 4°C overnight, followed by incubation with IRDye 680LT fluorescent secondary antibody (LI‐COR Biosciences, Lincoln, NE, USA). Proteins were visualized using the Odyssey Fc Imaging System (LI‐COR Biosciences, Lincoln, NE, USA). Mouse α‐tubulin antibody was used as protein loading controls. The immuno‐related procedures used comply with the recommendations made by the British Journal of Pharmacology (Alexander et al., 2018).
# JNK = assay: Western blot of phosphorylated and total JNK in U87 cells; conditions: BAPTA‐AM 10 μM 18 hr then bepridil 25 μM 30 min
# Procedure: as §2
# [3] = BAPTA‐AM 10 μM 18 hours then CB‐DMB 3.5 μM 18 hours
smiles,measurement,setting,value
"CC(=O)OCOC(=O)CN(CC(=O)OCOC(C)=O)c1ccccc1OCCOc1ccccc1N(CC(=O)OCOC(C)=O)CC(=O)OCOC(C)=O [BAPTA‐AM, 1,2‐bis(2‐aminophenoxy)ethane‐N,N,N′,N′‐tetraacetic acid tetrakis (acetoxymethyl ester)]",Effect of pretreatment on the influence of bepridil and KB‐R7943 on [Ca2+]i,[Ca^2+]i in U87 cells,completely abrogated
same,Effect on CB-DMB-induced cell cycle arrest,U87 cells [1]; [3],significantly attenuated
same,Effect on KB-R7943-induced G0/G1 arrest,"U87 cells [1]; BAPTA‐AM 10 μM + KB‐R7943 25 μM, 18 hr",not rescued
same,Effect on bepridil-induced G0/G1 cell cycle arrest,"U87 cells [1]; bepridil 25 μM 18 hr, pretreatment BAPTA‐AM 10 μM, CC‐930 10 μM or PD169316 10 μM",significantly attenuated
same,Effect on CB-DMB-induced apoptosis,U87 cells [2]; [3],significantly suppressed
same,Effect on KB-R7943-induced apoptosis,"U87 cells [2]; BAPTA‐AM 10 μM + KB‐R7943 25 μM, 20 hr",not attenuated
same,Effect on bepridil-induced apoptosis,"U87 cells [2]; bepridil 25 μM 24 hr, pretreatment BAPTA‐AM 10 μM, CC‐930 10 μM or PD169316 10 μM",significantly attenuated
same,Effect on bepridil-induced p38-MAPK activation,p38‐MAPK,attenuated
same,Effect on bepridil-induced JNK activation,JNK,attenuated
